# Data as given in ChEMBL document CHEMBL1201862, “PubChem BioAssay data set” (2004).
# Calls of active or inactive are those of the source.
# Columns and labels:
# [1] = NIH-3T3 fibroblast cytotoxicity, dose response, cytotoxicity control, cell-based, fluorescence, Alamar Blue, secondary assay (AID 2327); type: functional;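 note: NIH-3T3 mouse fibroblasts cultured with fluconazole at 8 µg/mL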
# [2] = biological target: T1, Aspartyl aminopeptidase (Plasmodium falciparum 3D7, UniProt Q8I2J3)
# T1 sequence (Q8I2J3 whole entry): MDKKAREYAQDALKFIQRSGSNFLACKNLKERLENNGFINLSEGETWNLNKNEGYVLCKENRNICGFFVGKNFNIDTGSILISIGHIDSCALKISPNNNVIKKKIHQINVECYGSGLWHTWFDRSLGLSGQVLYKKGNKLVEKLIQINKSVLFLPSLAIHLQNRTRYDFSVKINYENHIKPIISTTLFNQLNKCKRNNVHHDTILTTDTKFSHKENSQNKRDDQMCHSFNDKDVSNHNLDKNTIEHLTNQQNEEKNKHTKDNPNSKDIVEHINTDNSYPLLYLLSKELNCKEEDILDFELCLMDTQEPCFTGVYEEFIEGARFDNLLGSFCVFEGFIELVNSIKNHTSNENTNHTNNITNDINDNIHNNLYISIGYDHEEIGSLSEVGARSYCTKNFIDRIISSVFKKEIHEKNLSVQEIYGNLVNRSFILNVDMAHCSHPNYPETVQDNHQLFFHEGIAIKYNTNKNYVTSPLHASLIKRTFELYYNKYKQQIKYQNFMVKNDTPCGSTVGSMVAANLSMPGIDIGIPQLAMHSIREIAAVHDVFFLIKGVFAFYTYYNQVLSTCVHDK
# [3] = biological target: T2, Procathepsin L (Homo sapiens, UniProt P07711)
# [4] = tested on: Vero; test: host cell cytotoxicity of antiviral hits, dose response, cytotoxicity control for West Nile virus antiviral project, secondary assay (AID 1650); type: functional; conditions: Chlorocebus sabaeus
# [5] = C. albicans growth with fluconazole, confirmation, fluorescence, retest (AID 2467); type: functional, cell-based
# [6] = tested on: Vero; test: West Nile virus antiviral activity, cell-based, CPE readout (AID 1621); type: functional; conditions: Chlorocebus sabaeus
# [7] = biological target: T3, Microphthalmia-associated transcription factor (Homo sapiens, UniProt O75030); test: TRPM1 promoter luciferase signal decrease, dose response, MITF inhibitor project, cell-based, SK-MEL-5, cherry-picked, set 3 (AID 493073); type: functional
# T3 sequence (O75030 whole entry): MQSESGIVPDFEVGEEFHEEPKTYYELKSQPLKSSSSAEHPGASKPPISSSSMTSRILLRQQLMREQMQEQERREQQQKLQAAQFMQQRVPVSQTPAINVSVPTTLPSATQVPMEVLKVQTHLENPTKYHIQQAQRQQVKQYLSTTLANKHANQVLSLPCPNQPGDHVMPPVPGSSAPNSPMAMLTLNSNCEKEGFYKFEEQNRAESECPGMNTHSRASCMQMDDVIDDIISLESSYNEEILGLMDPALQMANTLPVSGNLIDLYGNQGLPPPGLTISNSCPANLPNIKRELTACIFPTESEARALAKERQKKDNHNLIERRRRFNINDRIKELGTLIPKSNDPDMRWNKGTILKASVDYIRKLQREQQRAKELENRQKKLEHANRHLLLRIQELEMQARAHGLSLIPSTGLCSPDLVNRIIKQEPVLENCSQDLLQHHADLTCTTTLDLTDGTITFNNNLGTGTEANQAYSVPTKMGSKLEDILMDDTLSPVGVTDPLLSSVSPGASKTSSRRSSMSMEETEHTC
# [8] = biological target: Paired box protein Pax-8 (Homo sapiens, UniProt Q06710); test: inhibitors of PAX8-driven TPO luciferase reporter, dose response, RMG-I cells, cherry-pick (AID 687027); type: functional, cell-based;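 note: luciferase reporter driven by Pax8 target thyroperoxidase promoter measured by SteadyGlo luminescence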
# [9] = biological target: T4, Heat shock factor protein 1 (Mus musculus, UniProt P38532); test: inhibition of MG132-induced HSE-luciferase signal, confirmation, cell-based, NIH3T3, luminescence, dose retest (AID 2382); type: functional;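 note: NIH3T3 fibroblasts with HSF1-driven luciferase reporter stressed by proteasome inhibitor MG132; luminescence from HSF1-driven luciferase expression after 8 hours of MG132 stress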
# T4 sequence (P38532 whole entry): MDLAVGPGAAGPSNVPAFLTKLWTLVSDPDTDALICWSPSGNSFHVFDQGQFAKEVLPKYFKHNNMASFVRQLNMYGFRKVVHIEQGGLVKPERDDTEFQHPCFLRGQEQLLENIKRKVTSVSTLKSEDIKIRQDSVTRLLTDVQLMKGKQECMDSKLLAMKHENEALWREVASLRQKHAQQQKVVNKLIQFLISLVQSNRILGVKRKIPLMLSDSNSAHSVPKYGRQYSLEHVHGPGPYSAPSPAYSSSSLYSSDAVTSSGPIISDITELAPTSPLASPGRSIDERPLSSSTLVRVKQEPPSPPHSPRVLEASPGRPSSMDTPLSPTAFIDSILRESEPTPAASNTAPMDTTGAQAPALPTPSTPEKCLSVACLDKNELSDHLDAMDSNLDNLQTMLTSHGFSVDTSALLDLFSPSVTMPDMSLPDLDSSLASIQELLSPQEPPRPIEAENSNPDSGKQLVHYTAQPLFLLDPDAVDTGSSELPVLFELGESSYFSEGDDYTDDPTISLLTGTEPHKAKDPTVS
# [10] = biological target: Peroxisome proliferator-activated receptor gamma/Nuclear receptor corepressor 2 (Homo sapiens, UniProt P37231+Q9Y618); test: Counterscreen for NR2E3 inverse agonists: TR-FRET-based biochemical high throughput dose response assay to identify inverse agonists of the interaction between peroxisome proliferator-activated receptor gamma (PPARg) and nuclear receptor co-repressor 2 (NCOR2).; type: functional
# [11] = biological target: Photoreceptor-specific nuclear receptor (Homo sapiens, UniProt Q9Y5X4); test: NR2E3 inverse agonists, dose response, biochemical, TR-FRET (AID 463256); type: functional
# [12] = biological target: NADPH oxidase 1 (Homo sapiens, UniProt Q9Y5S8); test: Late-stage luminescence-based cell-based dose response assay to identify inhibitors of NADPH oxidase 1 (NOX1): Purchased analogs 2.; type: functional
# [13] = biological target: T5, Leucine aminopeptidase (Plasmodium falciparum 3D7, UniProt Q8IL11); test: P. falciparum M17LAP inhibitors, primary screen, biochemical, fluorogenic H-Leu-NHMec substrate, 1536-well (AID 1619); type: functional
# T5 sequence (Q8IL11 whole entry): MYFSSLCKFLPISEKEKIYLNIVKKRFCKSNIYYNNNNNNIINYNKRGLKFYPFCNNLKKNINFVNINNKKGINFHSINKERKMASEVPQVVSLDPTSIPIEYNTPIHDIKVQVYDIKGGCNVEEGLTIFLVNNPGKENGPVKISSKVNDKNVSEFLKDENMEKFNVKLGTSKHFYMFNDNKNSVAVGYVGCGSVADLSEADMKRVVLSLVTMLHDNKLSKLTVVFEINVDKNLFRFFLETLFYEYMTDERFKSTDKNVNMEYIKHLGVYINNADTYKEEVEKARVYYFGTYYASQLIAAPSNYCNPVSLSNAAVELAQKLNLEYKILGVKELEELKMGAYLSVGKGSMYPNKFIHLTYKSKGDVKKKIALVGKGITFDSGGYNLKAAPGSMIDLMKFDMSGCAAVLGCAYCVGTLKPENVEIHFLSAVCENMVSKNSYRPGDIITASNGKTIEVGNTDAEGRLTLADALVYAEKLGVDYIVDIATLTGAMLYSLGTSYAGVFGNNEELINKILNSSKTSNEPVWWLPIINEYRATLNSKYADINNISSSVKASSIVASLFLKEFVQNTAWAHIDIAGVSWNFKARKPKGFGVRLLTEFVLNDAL
# [14] = biological target: T1, Aspartyl aminopeptidase; test: Counterscreen for inhibitors of M1 and M17 aminopeptidases: QFRET-based biochemical high throughput dose response assay for inhibitors of the Plasmodium falciparum M18 Aspartyl Aminopeptidase (PFM18AAP). [Related PubChem assays: 1619 (Screening assay (M17LAP inhibitors).), 1445 (Screening assay (M1AAP inhibitors).)]
# [15] = biological target: T2, Procathepsin L; test: cathepsin L inhibitors, dose response, counter-screen for M1/M17 aminopeptidase inhibitor project, biochemical, QFRET, 1536-well (AID 2214)
# [16] = biological target: T4, Heat shock factor protein 1; test: HSF1 potentiators in luciferase reporter cells, confirmation, cell-based, NIH3T3, luminescence, dose retest (AID 435004); type: functional;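 note: stress induced by proteasome inhibitor MG132 added 30 min after compound; luciferase reporter driven by HSF1 response element in NIH3T3 cells; actives raise luminescence as potentiators of the MG132 stress response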
# [17] = tested on: BJ; test: cytotoxicity toward BJ-TERT fibroblasts, dose response, cell-based, RAS-independent, luminescence (AID 1933); type: functional; conditions: Homo sapiens
# [18] = tested on: BJ; test: cells; type: functional, cell-based; conditions: Homo sapiens
# [19] = Luminescence-based dose response cell-based high throughput screening assay for cytotoxic compounds using the IEC-6 intestinal epithelial cell line. [Related pubchem assays: 1858 (Summary AID.), 1825 (Counterscreen.), 1907 (Confirmation screen.)]; type: functional
# [20] = tested on: BJ; test: cytotoxicity toward BJ-TERT-LT-ST fibroblasts, dose response, cell-based, RAS-independent, luminescence (AID 1935); type: functional; conditions: Homo sapiens;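 note: BJ fibroblasts immortalized with TERT plus LT and ST oncogenes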
# [21] = cytotoxicity toward DRD oncogenic fibroblasts, dose response, cell-based, non-viral oncogenic, luminescence (AID 1934); type: functional; conditions: Homo sapiens
# [22] = THP-1 cell cytotoxicity, dose response, cytotoxicity control for non-replicating M. tuberculosis project (AID 489025); type: functional
# [23] = HepG2 cell cytotoxicity, dose response, cytotoxicity control for non-replicating M. tuberculosis project (AID 489018); type: functional; conditions: Mycobacterium tuberculosis
# [24] = Vero E6 cell cytotoxicity, dose response, cytotoxicity control for non-replicating M. tuberculosis project, secondary assay (AID 492998); type: functional, VeroE6; conditions: Vero C1008
# [25] = biological target: Nonstructural protein 1 (Influenza A virus, UniProt Q194T2); type: functional, Influenza A virus (A/California/07/2009(H1N1))
# [26] = cells; type: functional
# [27] = tested on: Vero; test: cells; type: functional, cell-based; conditions: Chlorocebus sabaeus
# [28] = tested on: BJ; test: cytotoxicity toward Ras-transformed BJeLR fibroblasts, dose response, cell-based, alamar blue fluorescence, cherrypicked samples (AID 2631); type: functional; conditions: Homo sapiens;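 note: confirmatory dose-response assay in RAS-dependent BJ fibroblasts engineered with TERT, LT and ST, with cytotoxicity read by fluorescence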
# [29] = tested on: INS1; test: beta cell apoptosis inhibitors, cytokine rescue, dose response, luminescence, retest (AID 449756); type: functional, cell-based; conditions: Rattus norvegicus;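 note: cell death triggered by IL-1 beta plus TNF-alpha plus IFN-gamma mixture; protective hits raise ATP signal compared with cytokine alone wells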
# [30] = tested on: Vero; test: cells; type: functional; conditions: Chlorocebus sabaeus
# [31] = biological target: T6, Bcl-2-related protein A1 (Mus musculus, UniProt Q07440); test: Bfl-1 inhibitors, primary screen, biochemical, fluorescence polarization, FITC-Bid, mouse (AID 432)
# T6 sequence (Q07440 whole entry): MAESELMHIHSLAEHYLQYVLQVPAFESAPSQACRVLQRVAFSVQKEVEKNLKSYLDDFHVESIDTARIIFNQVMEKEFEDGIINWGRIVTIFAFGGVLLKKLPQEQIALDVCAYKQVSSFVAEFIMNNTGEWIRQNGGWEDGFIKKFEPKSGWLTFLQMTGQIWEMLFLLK
# [32] = biological target: T6, Bcl-2-related protein A1; test: Bfl-1 inhibitors blocking BH3 peptide binding, confirmation, biochemical, TR-FRET, mouse Bfl-1 (AID 621);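 note: TR-FRET binding of GST-Bfl-1 to FITC-labelled Bid peptide via terbium antibody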
# [33] = biological target: Muscarinic acetylcholine receptor M1 (Rattus norvegicus, UniProt P08482); test: rat M1 positive allosteric modulator potency, dose response, cell-based, calcium mobilization, CHO-K1, ACh EC20 (AID 2425); type: functional
# [34] = biological target: Cytochrome P450 2C19 (Homo sapiens, UniProt P33261); test: qHTS Assay for Inhibitors and Substrates of Cytochrome P450 2C19. [Related pubchem assays: 410 ]; type: ADME; conditions: read-out: Potency
# [35] = cytotoxicity in HPDE-C7 cells, cell-based, fluorescence, HTS (AID 430); type: functional; conditions: Homo sapiens
# [36] = cytotoxicity in KRAS-transformed pancreatic duct cells, primary screen, cell-based, fluorescence, HTS (AID 431); type: functional; conditions: Homo sapiens;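 note: cell line used: HPDE-C7K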
# T2 sequence (P07711 whole entry): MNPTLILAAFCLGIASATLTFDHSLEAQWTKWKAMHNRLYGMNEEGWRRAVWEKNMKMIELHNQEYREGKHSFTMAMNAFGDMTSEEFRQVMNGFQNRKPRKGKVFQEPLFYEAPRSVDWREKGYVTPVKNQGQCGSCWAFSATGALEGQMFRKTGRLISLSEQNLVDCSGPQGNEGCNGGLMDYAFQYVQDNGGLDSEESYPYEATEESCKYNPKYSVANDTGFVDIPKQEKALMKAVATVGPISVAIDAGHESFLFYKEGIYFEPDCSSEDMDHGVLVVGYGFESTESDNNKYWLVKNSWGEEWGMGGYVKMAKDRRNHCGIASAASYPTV
# Muscarinic acetylcholine receptor M1, sequence (P08482 whole entry): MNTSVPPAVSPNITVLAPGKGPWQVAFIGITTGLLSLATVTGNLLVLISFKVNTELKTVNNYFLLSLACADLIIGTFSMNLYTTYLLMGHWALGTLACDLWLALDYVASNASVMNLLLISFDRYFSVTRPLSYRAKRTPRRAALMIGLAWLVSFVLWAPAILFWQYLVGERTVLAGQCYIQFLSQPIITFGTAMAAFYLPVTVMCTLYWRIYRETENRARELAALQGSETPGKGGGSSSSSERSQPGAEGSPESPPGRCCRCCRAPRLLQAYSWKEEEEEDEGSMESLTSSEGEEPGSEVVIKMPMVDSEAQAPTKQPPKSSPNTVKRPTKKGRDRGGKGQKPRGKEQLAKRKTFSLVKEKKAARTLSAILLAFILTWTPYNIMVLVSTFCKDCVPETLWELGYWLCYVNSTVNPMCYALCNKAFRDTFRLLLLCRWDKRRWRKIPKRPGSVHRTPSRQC
# Nonstructural protein 1, sequence (Q194T2 whole entry): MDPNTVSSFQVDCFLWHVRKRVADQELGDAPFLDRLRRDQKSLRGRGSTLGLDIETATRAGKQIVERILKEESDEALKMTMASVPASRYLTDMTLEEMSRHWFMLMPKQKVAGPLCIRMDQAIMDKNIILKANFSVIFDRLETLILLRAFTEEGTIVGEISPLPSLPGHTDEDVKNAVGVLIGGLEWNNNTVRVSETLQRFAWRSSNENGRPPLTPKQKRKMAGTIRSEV
# Photoreceptor-specific nuclear receptor, sequence (Q9Y5X4 whole entry): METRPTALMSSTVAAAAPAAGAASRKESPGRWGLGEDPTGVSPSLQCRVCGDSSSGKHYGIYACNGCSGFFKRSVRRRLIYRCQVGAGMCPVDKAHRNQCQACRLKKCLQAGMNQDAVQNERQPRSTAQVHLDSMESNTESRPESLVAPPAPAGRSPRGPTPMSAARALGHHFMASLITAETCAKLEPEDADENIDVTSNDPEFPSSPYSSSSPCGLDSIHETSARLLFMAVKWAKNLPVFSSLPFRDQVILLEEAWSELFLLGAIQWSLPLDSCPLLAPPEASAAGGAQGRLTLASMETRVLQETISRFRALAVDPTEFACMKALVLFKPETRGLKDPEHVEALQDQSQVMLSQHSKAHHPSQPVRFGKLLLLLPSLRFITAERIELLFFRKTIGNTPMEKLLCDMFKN
# Cytochrome P450 2C19, sequence (P33261 whole entry): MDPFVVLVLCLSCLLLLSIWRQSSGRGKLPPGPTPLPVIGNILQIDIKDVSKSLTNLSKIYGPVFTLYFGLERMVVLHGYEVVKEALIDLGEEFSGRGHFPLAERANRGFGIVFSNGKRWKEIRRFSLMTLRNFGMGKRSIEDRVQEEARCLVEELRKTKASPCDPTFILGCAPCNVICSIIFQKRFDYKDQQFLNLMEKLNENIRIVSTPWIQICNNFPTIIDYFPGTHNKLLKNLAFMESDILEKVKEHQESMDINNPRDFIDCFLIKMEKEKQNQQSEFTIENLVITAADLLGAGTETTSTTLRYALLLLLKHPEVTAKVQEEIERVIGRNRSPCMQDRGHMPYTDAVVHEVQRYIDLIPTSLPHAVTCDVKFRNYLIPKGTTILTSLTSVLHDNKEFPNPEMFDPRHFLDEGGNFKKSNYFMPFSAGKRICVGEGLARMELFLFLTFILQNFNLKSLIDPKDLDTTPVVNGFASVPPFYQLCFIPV
# Paired box protein Pax-8, sequence (Q06710 whole entry): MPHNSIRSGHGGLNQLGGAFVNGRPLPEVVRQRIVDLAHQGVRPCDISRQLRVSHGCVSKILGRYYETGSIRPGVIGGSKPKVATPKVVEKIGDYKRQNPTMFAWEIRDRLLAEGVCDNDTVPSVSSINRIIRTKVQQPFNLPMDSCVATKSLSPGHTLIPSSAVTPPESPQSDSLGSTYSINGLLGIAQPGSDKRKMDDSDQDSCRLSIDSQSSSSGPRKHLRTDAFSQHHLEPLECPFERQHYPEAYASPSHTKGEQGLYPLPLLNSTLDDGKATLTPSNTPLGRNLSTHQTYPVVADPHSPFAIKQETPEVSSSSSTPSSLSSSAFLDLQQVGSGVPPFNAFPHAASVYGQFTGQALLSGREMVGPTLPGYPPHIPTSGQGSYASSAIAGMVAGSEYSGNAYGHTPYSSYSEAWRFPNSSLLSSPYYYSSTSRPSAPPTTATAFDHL
# NADPH oxidase 1, sequence (Q9Y5S8 whole entry): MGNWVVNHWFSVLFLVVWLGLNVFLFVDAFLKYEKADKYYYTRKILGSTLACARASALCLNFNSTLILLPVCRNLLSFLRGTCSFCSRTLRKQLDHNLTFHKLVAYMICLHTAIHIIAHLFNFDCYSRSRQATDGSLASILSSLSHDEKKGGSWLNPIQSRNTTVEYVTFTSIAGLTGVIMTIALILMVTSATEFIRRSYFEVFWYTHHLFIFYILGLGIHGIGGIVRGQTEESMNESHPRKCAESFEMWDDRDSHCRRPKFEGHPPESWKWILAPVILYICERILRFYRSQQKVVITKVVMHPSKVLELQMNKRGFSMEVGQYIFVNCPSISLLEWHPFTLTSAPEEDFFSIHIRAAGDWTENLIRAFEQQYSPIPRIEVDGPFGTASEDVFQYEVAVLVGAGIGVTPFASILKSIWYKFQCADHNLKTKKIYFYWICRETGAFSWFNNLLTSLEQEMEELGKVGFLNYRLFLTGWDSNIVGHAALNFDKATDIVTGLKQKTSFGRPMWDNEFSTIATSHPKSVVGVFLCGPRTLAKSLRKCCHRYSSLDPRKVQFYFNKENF
smiles,measurement,setting,value
BrC(=C\c1ccccc1)/C=N/n1cnnc1,EC50,[1],> 150 µM (inconclusive)
same,IC50,[2],1.89 µM (active)
same,IC50,[3],> 59.6 µM (not active)
same,CC50,[4],6.4 µM (active)
same,EC50,[5],1.01 µM (active)
same,IC50,[6],39.2 µM (active)
same,AC50,[7],7.26 µM (active)
same,AC50,[8],3.84 µM (active)
O=C(CCCCCn1c(=S)[nH]c2cc3c(cc2c1=O)OCO3)N1CCN(C(=O)c2ccco2)CC1,EC50,[9],> 195 µM (not active)
same,IC50,[10],> 39.8 µM (not active)
same,IC50,[11],3.68 µM (active)
C=C(NNc1c(F)c(F)nc(F)c1F)c1ccc(-n2cncn2)cc1,IC50,[12],> 17 µM (not active)
O=C(CSc1nc(O)cc(=O)n1-c1ccccc1)Nc1ccc2c3c(cccc13)CC2,IC50,[13],1.45 µM (active)
same,IC50,[14],> 73.5 µM (not active)
same,IC50,[15],> 59.6 µM (not active)
same,EC50,[16],> 260 µM (inactive)
COc1ccc(C(=O)N/N=C(\C)c2ccccn2)cc1OC,EC50,[17],9.02 µM (active)
same,EC50,[18],2.07 µM (active)
same,IC50,[19],0.937 µM (active)
same,EC50,[20],4.38 µM (active)
same,EC50,[21],5.69 µM (active)
same,CC50,[22],0.822 µM (active)
same,CC50,[23],9.24 µM (active)
same,CC50,[24],2.88 µM (active)
same,IC50,[25],2.93 µM (active)
same,IC50,[26],3.01 µM (active)
same,IC50,[27],> 25 µM (active)
same,EC50,[28],1.23 µM (active)
same,AC50,[29],0.584 µM (active)
same,CC50,[30],2.83 µM (active)
Brc1ccc(-c2nnc3ccc(N4CCN(c5ccccc5)CC4)nn23)cc1,IC50,[31],8.88 µM (active)
same,IC50,[32],> 100 µM (not active)
Cc1cc(NC(=O)CS(=O)(=O)c2cn(Cc3cccc(F)c3)c3ccccc23)no1,EC50,[33],5.32 µM (active)
O=c1cc(-c2ccc(O)cc2O)oc2ccccc12,AC50,[34],6.31 µM (inconclusive)
O=S(=O)(c1ccc(Cl)c(Cl)c1)N1CCc2nc3ccccc3n2CC1,EC50,[35],0.49 µM (active)
same,EC50,[36],> 20 µM (not active)
